Measurements as given in paper PMC6112376, “Comprehensive Analyses and Prioritization of Tox21 10K Chemicals Affecting Mitochondrial Function by in-Depth Mechanistic Studies” (Environmental Health Perspectives, 2018).
Read-outs that look alike come from different tables or passages of the source.

What was measured:
rat primary hepatocytes [1] = system: rat primary hepatocytes
HepG2 cells [2] = conditions: cited from earlier work
HepG2 cells [3] = experiment: cells; conditions: Homo sapiens; for IC50: HepG2, read-out: MMP assays IC50 (µM) HepG2; for Emax: HepG2, read-out: MMP assays efficacy (%) HepG2
rat primary hepatocytes [4] = experiment: MMP assay in rat primary hepatocytes; conditions: for IC50: Rattus norvegicus, Hepatocyte, read-out: MMP assays IC50 (µM) Rat Hepatocytes
[5] = read-out: MMP assays IC50 (µM) qHTS-HepG2
[6] = read-out: MMP assays IC50 (µM), qHTS-HepG2

Compound | MMP assays efficacy (%) Rat Hepatocytes (rat primary hepatocytes [1]) | MMP assays efficacy (%) qHTS-HepG2 (HepG2 cells [2]) [%] | IC50 (HepG2 cells [2]; [5]) [µM] | IC50 (HepG2 cells [3]) [µM] | Emax (HepG2 cells [3]) [%] | IC50 (rat primary hepatocytes [4]) [µM] | MMP assays IC50 (µM) Rat Hepatocytes (rat primary hepatocytes [4]) | IC50 (HepG2 cells [2]; [6]) [µM]
COP(=S)(OC)Oc1cc(Cl)c(Br)cc1Cl [Bromofos] | -111±7% | -105±8 | 7.7 ± 1.63 | 8.91 | 95 | 22.7 ± 10.4 | – | –
C#C[C@]1(O)CC[C@H]2[C@@H]3CCC4=CCCC[C@@H]4[C@H]3C(=C)C[C@@]21CC [Desogestrel] | inactive | -125±21 | 22.3 ± 2.11 | 27.5 | 84 | – | inactive | –
CC(=O)Oc1ccc(C2(c3ccc(OC(C)=O)cc3)C(=O)Nc3ccccc32)cc1 [Oxyphenisatin acetate] | -71±28% | -63±8 | – | 17.3 | 118 | 20.6 ± 1.68 | – | 5.49 ± 4.6
CC1(C(=O)Nc2ccc(O)c(Cl)c2Cl)CCCCC1 [Fenhexamid] | -62±26% | -88±22 | 8.31 ± 1.15 | 17.8 | 98 | 36.7 ± 21.2 | – | –
CC(=O)Nc1ccc2c(c1)Cc1ccccc1-2 [Compound 2-Acetylaminofluorene] | inactive | -63±5 | 36.3 ± 10.5 | 31.6 | 46 | – | inactive | –
NS(=O)(=O)C(F)(F)C(F)(F)C(F)(F)C(F)(F)C(F)(F)C(F)(F)C(F)(F)C(F)(F)F [Perfluorooctanesulfonamide] | -118±45% | -94±15 | – | 2.51 | 101 | 1.47 ± 0.1 | – | 2.43 ± 0.81
Clc1ccc(C(c2ccccc2Cl)C(Cl)(Cl)Cl)cc1 (centres unmarked) [o,p'-DDT] | inactive | -86±11 | – | 25.1 | 101 | – | inactive | 24 ± 12.1
O=C(CCc1ccc(O)cc1)c1c(O)cc(O)cc1O [Phloretin] | -74±26% | -107±12 | – | 11.2 | 100 | 10.6 ± 4.98 | – | 4.26 ± 1.22
Oc1ccc(Cl)cc1Sc1cc(Cl)ccc1O [Fenticlor] | -88±15% | -107±14 | – | 5.48 | 101 | 13.9 ± 8.84 | – | 2.15 ± 0.36
C[C@H]1O[C@@H](O[C@H]2[C@@H](O)C[C@H](O[C@H]3[C@@H](O)C[C@H](O[C@H]4CC[C@@]5(C)[C@H](CC[C@@H]6[C@@H]5CC[C@]5(C)[C@@H](C7=CC(=O)OC7)CC[C@]65O)C4)O[C@@H]3C)O[C@@H]2C)C[C@H](O)[C@@H]1O [Digitoxin] | inactive | -77±6 | 0.16 ± 0.05 | 0.06 | 97 | – | inactive | –
CC(C)(c1ccccc1)c1ccc(O)cc1 [Compound 4-Cumylphenol] | -77±17% | -103±17 | 3.7 ± 0.82 | 3.55 | 108 | 48 ± 11.6 | – | –
CCCN(CCC)c1c([N+](=O)[O-])cc(C(F)(F)F)c(N)c1[N+](=O)[O-] [Prodiamine] | -95±8% | -85±11 | – | 8.91 | 93 | 25.4 ± 11.7 | – | 4.84 ± 0.56
BrC1CCC(Br)C(Br)CCC(Br)C(Br)CCC1Br (centres unmarked) [1,2,5,6,9,10-Hexabromocyclododecane] | -89±40% | -96±6 | 6.93 ± 1.95 | 6.31 | 105 | 32 ± 16.5 | – | –
CCC(=O)c1c(O)cc(O)cc1O [Flopropione] | inactive | -111±23 | – | 17.3 | 103 | – | inactive | 18.8 ± 6.83
CC(=O)[C@]1(O)Cc2c(O)c3c(c(O)c2[C@@H](O[C@H]2C[C@H](N)[C@H](O)[C@H](C)O2)C1)C(=O)c1c(O)cccc1C3=O [Carminomycin] | inactive | -91±17 | 1.25 ± 0.73 | 21.8 | 68 | – | inactive | –
CC1CCCCC1NC(=O)Nc1ccccc1 (centres unmarked) [Siduron] | -48±7% | -73±13 | – | 35.5 | 89 | 43.9 ± 17.4 | – | 41.6 ± 21.1
Oc1ccc(Cc2ccccc2)cc1 [Compound 4-Benzylphenol] | inactive | -124±22 | 15.9 ± 3.38 | 31.6 | 118 | – | inactive | –

Compound | MMP assays efficacy (%) Rat Hepatocytes (rat primary hepatocytes [1]) | MMP assays efficacy (%) qHTS-HepG2 (HepG2 cells [2]) [%] | IC50 (HepG2 cells [2]; [5]) [µM] | IC50 (HepG2 cells [3]) [µM] | Emax (HepG2 cells [3]) [%] | IC50 (rat primary hepatocytes [4]) [µM] | MMP assays IC50 (µM) Rat Hepatocytes (rat primary hepatocytes [4]) | IC50 (HepG2 cells [2]; [6]) [µM]
COP(=S)(OC)Oc1c(Cl)cc(C)cc1Cl [Tolclofos-methyl] | -74±66% | -72±22 | – | 39.8 | 105 | 31.2 ± 19 | – | 30.6 ± 5.8
CC1(C)CCC(C)(C)c2cc(NC(=O)c3ccc(C(=O)O)cc3)ccc21 [Tamibarotene] | -75±57% | -128±10 | – | 13.8 | 95 | 9.06 ± 6.66 | – | 25.7 ± 1.05
Cc1cc2nc3c(=O)[nH]c(=O)nc-3n(C[C@H](O)[C@H](O)[C@H](O)CO)c2cc1C [Riboflavin] | -97±58% | -113±7 | – | 11.2 | 86 | 31.3 ± 8.72 | – | 7.02 ± 1.78
CN(C)c1ccc(C(=C2C=CC(=[N+](C)C)C=C2)c2ccc(N(C)C)cc2)cc1 [Gentian violet] | -70±14% | -92±4 | – | 0.35 | 92 | 1.34 ± 0.11 | – | 0.08 ± 0.04
NC(=O)Oc1ccc(Cc2ccccc2)cc1 [Diphenan] | -51±6% | -115±14 | 22.3 ± 4.67 | 19.9 | 112 | 84.2 ± 39.6 | – | –
C=C(C)CN(CC)c1c([N+](=O)[O-])cc(C(F)(F)F)cc1[N+](=O)[O-] [Ethalfluralin] | inactive | -57±4 | 43.3 ± 17.6 | 44.7 | 68 | – | inactive | –
CCN1/C(=C/C=C/C=C/c2sc3ccccc3[n+]2CC)Sc2ccccc21 [Dithiazanine iodide] | -59±11% | -85±6 | 0.1 ± 0.15 | 0.0275 | 88 | 0.98 ± 0.16 | – | –
Nc1ccccc1N [1,2-Phenylenediamine] | -41±14% | -96±16 | 3.9 ± 3.61 | 2.51 | 87 | 17.9 ± 6.5 | – | –
CC(=O)Oc1ccccc1C(=O)Nc1ncc([N+](=O)[O-])s1 [Nitazoxanide] | -94±13% | -94±10 | – | 1.26 | 89 | 6.94 ± 4.36 | – | 1.04 ± 0.96
CCCCCCCC(=O)Oc1c(Br)cc(C#N)cc1Br [Bromoxynil octanoate] | -38±2% | -109±13 | 15.3 ± 5.08 | 31.6 | 125 | 28.6 ± 22.7 | – | –
CC(C)[C@@H](Nc1ccc(C(F)(F)F)cc1Cl)C(=O)OC(C#N)c1cccc(Oc2ccccc2)c1 (some centres unmarked) [tau-Fluvalinate] | inactive | – | – | 31.6 | 58 | – | inactive | 37.2 ± 15.1
CCC(C)(c1ccc(O)cc1)c1ccc(O)cc1 [Bisphenol B] | -79±17% | -117±22 | 10.7 ± 2.48 | 10 | 122 | 21.8 ± 8.6 | – | –
ClC(Cl)=C(c1ccc(Cl)cc1)c1ccc(Cl)cc1 [p,p'-DDE] | inactive | -96±25 | – | 44.7 | 105 | – | inactive | 25.6 ± 1.71
CCC(C)(CC)c1cc(NC(=O)c2c(OC)cccc2OC)on1 [Isoxaben] | inactive | -80±23 | – | 14.1 | 60 | – | inactive | 26.3 ± 5.75
CO/N=C(/C1=NOCCO1)c1ccccc1Oc1ncnc(Oc2ccccc2Cl)c1F [Fluoxastrobin] | -105±24% | -81±29 | – | 11.2 | 72 | 37.9 ± 19.3 | – | 45.8 ± 15
Oc1ccc2ccc3cccc4ccc1c2c34 [Compound 1-Hydroxypyrene] | -49±25% | -110±22 | 4.67 ± 1.95 | 7.08 | 99 | 33.5 ± 2.73 | – | –
O=[N+]([O-])c1c2ccccc2cc2ccccc12 [Compound 9-Nitroanthracene] | -74±29% | -87±19 | 21.4 ± 12.8 | 35.5 | 88 | 33 ± 4.21 | – | –
